Data set [1] deals with Th1- and Th2-related chemokines. To be noted: upon stimulation; Kuo et al. 2019; cited from earlier work.
The test system of data set [2] is IL-8 levels and neutrophil accumulation and activation. To be noted: refractory asthma patients; Simpson et al. 2008; cited from earlier work.
The subject of data set [3] is IL-2, IL-6, IL-7, IL-10, MCP-I, IFNγ, IP-10 and MIG. The data set can be described thus: Serum inflammatory cytokine profile after rAAV-Luc, tetracycline pretreatment (Example 2). It counts as in vivo, piglets. As for the experimental part: (§1) The effect of antibiotic pretreatment on the rAAV particle-induced toxicity e.g., inflammatory response and liver enzyme levels (e.g., toxicity) is examined by measuring levels of endogenous cytokines and liver enzymes AST and ALT in animals injected with rAAV8-Luc particles operably encoding luciferase nucleic acid.
(§2) Female piglets (n=5) are injected intravenously with either PBS alone (antibiotic control) or 25 mg/kg/day tetracycline in PBS 4 hours prior to intravenous administration of PBS alone (viral control) or 2×10^12 particles of rAAV-Luc vector. Small amounts of blood are collected aseptically obtained through the jugular vein at 30 minutes, 60 minutes, 90 minutes, 120 minutes, 1 day, 3 days, 10 days, 21 days, 28 days, 42 days, 60 days post-rAAV-Luc treatment, and serum is isolated. The serum is then analyzed for an inflammatory cytokine profile using the BD™ Cytometric Bead Array Mouse Inflammation Kit (BD™ CBA Mouse Inflammation Kit, BD Biosciences), specifically measuring levels of IL-2, IL-6, IL-7, IL-10, MCP-I, IFNγ, IP-10 and MIG. Liver transaminases e.g., AST and ALT are also measured at the above mentioned timepoints.

In data set [4] the test system is liver transaminases AST and ALT. Description: Liver transaminases AST/ALT after rAAV-Luc, tapering prednisone and tetracycline (Example 3). It counts as in vivo, piglets. To be noted: tetracycline 5-50 mg/kg/day, alone or with tapering prednisone from 25 mg/kg.
Procedure: The effect of antibiotic treatment on rAAV particle-induced toxicity is examined by measuring levels of endogenous cytokines and liver transaminases e.g., AST and ALT in animals injected with rAAV-Luc particles operably encoding luciferase nucleic acid.
Female piglets (n=5) are pretreated with 25 mg/kg/day prednisolone 24 hours prior to rAAV8-luc (2×10^12 particles of rAAV-Luc particles) administration and then continued for 4 weeks. Then each week the prednisone is tapered by 5 mg/kg until no prednisone and continued for 15 weeks post AAV administration (2×10^12 particles per piglet). Tetracycline is then administered at 15 mg/kg/day for 16-24 weeks. Small amounts of blood are collected aseptically obtained through the jugular vein at 2 hrs, 4 hrs, 1 day, 3 days, 10 days, 21 days, 4 weeks, 8 weeks, 15 weeks, 24 weeks post-rAAV-Luc treatment, post-rAAV-Luc treatment, and serum is isolated.
Data set [5] deals with liver enzymes AST and ALT. Description: Liver transaminases AST/ALT after rAAV-Luc, tetracycline pretreatment (Example 2). The data set is classed as in vivo, piglets. The conditions noted are these: 25 mg/kg/day tetracycline i.v. 4 hours prior to 2×10^12 particles rAAV-Luc. On the procedure:
as §1, §2

Each structure is given as a SMILES string.

As for `CC[C@H]1OC(=O)[C@H](C)[C@@H](O[C@H]2C[C@@](C)(OC)[C@@H](O)[C@H](C)O2)[C@H](C)[C@@H](O[C@@H]2O[C@H](C)C[C@H](N(C)C)[C@H]2O)[C@](C)(O)C[C@@H](C)CN(C)[C@H](C)[C@@H](O)[C@]1(C)O` [Azithromycin], the “effect on Th1- and Th2-related chemokines” value in data set [1] was “suppress Th1- and Th2-related chemokines”.
Take `CC[C@H]1OC(=O)[C@H](C)[C@@H](O[C@H]2C[C@@](C)(OC)[C@@H](O)[C@H](C)O2)[C@H](C)[C@@H](O[C@@H]2O[C@H](C)C[C@H](N(C)C)[C@H]2O)[C@](C)(OC)C[C@@H](C)C(=O)[C@H](C)[C@@H](O)[C@]1(C)O` [clarithromycin, Clarithromycin]: the “effect on IL-8 levels and neutrophil accumulation and activation” value in data set [2] is “modulate IL-8 levels and Neutophil accumulation and activation”.
With `CN(C)[C@@H]1C(O)=C(C(N)=O)C(=O)[C@@]2(O)C(O)=C3C(=O)c4c(O)cccc4[C@@](C)(O)[C@H]3C[C@@H]12` [tetracycline, Tetracycline], the “inflammatory response (cytokine levels) resulting from rAAV-Luc vs antibiotic control” value in data set [3] (25 mg/kg/day tetracycline i.v. 4 hours prior to 2×10^12 particles rAAV-Luc i.v.) was “significantly reduce”. In addition, in data set [3] (25 mg/kg/day tetracycline i.v., no vector), the “inflammatory response, tetracycline followed by PBS alone” value was “no inflammatory response”. For the same molecule, the “AST/ALT levels vs control piglets” value in data set [4] is recorded as “decreased significantly”. In data set [5], the “AST/ALT ratio with time” value was “less than 1”.

These data come from patent publication US20230149428A1, “METHOD OF TREATING GENE THERAPY ASSOCIATED TOXICITY WITH ANTIBIOTICS” (Asklepios BioPharmaceutical, Inc., priority 2020, published 2023).
